Drawing on patent US11945816B2, “Inhibitors of EGFR and/or HER2 and methods of use” (Dana-Farber Cancer Institute, Inc., priority 2017, dated 2024), this text covers EC50 for six molecules.

Common to all, as to type: cell-based
The target in test [1] is T1, EGFR InsHH (Y764_V765insHH) transformed Ba/F3 cells (Homo sapiens, UniProt P00533, INS764HH).
T1 construct: expressed in transfected cells; host or cells: Ba/F3
Kind of test: Proliferation inhibition assay, EGFR InsHH transformed Ba/F3 cells. The settings on record: MTS assay, 72 hours. The procedure:
(§1) Cell growth inhibition can be assessed by MTS assay or by Cell Titer Glo Luminescent Cell viability assay (Promega®). Cells are seeded and grow in culture plates before they are exposed to representative compounds of the application for various duration. The viability of the cells are then assessed. […] The growth curves can be fitted using a nonlinear regression model with sigmoidal dose response.
(§2) Cell growth inhibition was assessed by MTS assay for Ba/F3, DFCI58-229, and DFCI127c cells, or by Cell Titer Glo Luminescent Cell viability assay (Promega®) for DFC1362JC cells, 3000 Ba/F3 cells were seeded for per well in 96-well plates, and were exposed to representative compounds of the application (3.3 nM to 10 μM) for 72 hours. For DFCI58-229, DFCI127c, and DFC1362JC cells, 5000 cells were seeded per well. All experimental points included 6 to 12 wells. […] The growth curves were fitted using a nonlinear regression model with sigmoidal dose response.
(§3) Activities of representative compounds of the present application in inhibiting EGFR and HER2 were tested by MTS assay (for Ba/F3 cell, DFCI58-229 cell, and DFCI127c cells) or by CellTiter-Glot luminescent cell viability assay (for DFCI362JC cells). For assays with Ba/F3 cells, 3000 cells were seeded for per well in 96-well plates and were exposed to indicated compounds with a concentration of 3.3 to 10 μM for 72 hours. For assays with DFCI58-229 cell, DFCI127c cell, or DFCI362JC cell, 5000 cells were seeded per well in 96-well plates and were exposed to indicated compounds with a concentration of 3.3 to 10 μM for 72 hours.

For test [2], the target named is T2, wild-type HER2 transformed Ba/F3 cells (Homo sapiens, UniProt P04626).
T2 construct: expressed in transfected cells; host or cells: Ba/F3
The test can be described thus: Proliferation inhibition assay, wild-type HER2 transformed Ba/F3 cells. The note with it: MTS assay, 72 hours, Table 9 key. How it is done:
as §1, §2, §3

The target of test [3] is T3, wild-type EGFR transformed Ba/F3 cells (Homo sapiens, UniProt P00533).
T3 construct: expressed in transfected cells; host or cells: Ba/F3
Kind of test: Proliferation inhibition assay, wild-type EGFR transformed Ba/F3 cells. The note with it: MTS assay, 72 hours. How it is done: as §1, §2, §3

In test [4] the target is T4, EGFR InsGY (D770delinsGY) transformed Ba/F3 cells (Homo sapiens, UniProt P00533, D770Y/INS769G).
T4 construct: expressed in transfected cells; host or cells: Ba/F3
The test can be described thus: Proliferation inhibition assay, EGFR InsGY transformed Ba/F3 cells. The note with it: MTS assay, 72 hours. The procedure: as §1, §2, §3

Test [5] addresses T5, EGFR InsSVD (D770_N771insSVD) transformed Ba/F3 cells (Homo sapiens, UniProt P00533, INS770SVD).
T5 construct: expressed in transfected cells; host or cells: Ba/F3
The test can be described thus: Proliferation inhibition assay, EGFR InsSVD transformed Ba/F3 cells. The settings on record: MTS assay, 72 hours. The procedure:
as §1, §2, §3

In test [6] the target is T6, HER2 InsYVMA (A775_G776insYVMA) transformed Ba/F3 cells (Homo sapiens, UniProt P04626, INS775YVMA).
T6 construct: expressed in transfected cells; host or cells: Ba/F3
Kind of test: Proliferation inhibition assay, HER2 InsYVMA transformed Ba/F3 cells. The note with it: MTS assay, 72 hours, Table 9 key. How it is done: as §1, §2, §3

Test [7] addresses T7, EGFR InsH transformed Ba/F3 cells (Homo sapiens, UniProt P00533, DUP773-773).
T7 construct: expressed in transfected cells; host or cells: Ba/F3
Kind of test: Proliferation inhibition assay, EGFR InsH transformed Ba/F3 cells. The note with it: MTS assay, 72 hours. The procedure: as §1, §2, §3

The target in test [8] is T8, HER2 InsVC (G776delinsVC) transformed Ba/F3 cells (Homo sapiens, UniProt P04626, G776C/INS775V).
T8 construct: expressed in transfected cells; host or cells: Ba/F3
Kind of test: Proliferation inhibition assay, HER2 InsVC transformed Ba/F3 cells. The note with it: MTS assay, 72 hours, Table 9 key. The procedure:
as §1, §2, §3

Test [9] has as its target T9, EGFR InsASV (V769_D770insASV) transformed Ba/F3 cells (Homo sapiens, UniProt P00533, INS769ASV).
T9 construct: expressed in transfected cells; host or cells: Ba/F3
The test can be described thus: Proliferation inhibition assay, EGFR InsASV transformed Ba/F3 cells. The note with it: MTS assay, 72 hours. The procedure:
as §1, §2, §3

For test [10], the target named is T10, HER2 InsGSP (P780_Y781insGSP) transformed Ba/F3 cells (Homo sapiens, UniProt P04626, INS780GSP).
T10 construct: expressed in transfected cells; host or cells: Ba/F3
The test can be described thus: Proliferation inhibition assay, HER2 InsGSP transformed Ba/F3 cells. The settings on record: MTS assay, 72 hours, Table 9 key. How it is done: as §1, §2, §3

Test [11] concerns the target T11, EGFR InsNPG (D770_N771insNPG) transformed Ba/F3 cells (Homo sapiens, UniProt P00533, INS770NPG).
T11 construct: expressed in transfected cells; host or cells: Ba/F3
Kind of test: Proliferation inhibition assay, EGFR InsNPG transformed Ba/F3 cells. The settings on record: MTS assay, 72 hours. The procedure: as §1, §2, §3

Test [12] concerns the target T12, HER2 InsWLV transformed Ba/F3 cells (Homo sapiens, UniProt P04626, INS773WL/M774V).
T12 construct: expressed in transfected cells; host or cells: Ba/F3
Kind of test: Proliferation inhibition assay, HER2 InsWLV transformed Ba/F3 cells. The note with it: MTS assay, 72 hours, Table 9 key. The procedure: as §1, §2, §3

T1 sequence (P00533 with tags, fused parts or gaps INS764HH): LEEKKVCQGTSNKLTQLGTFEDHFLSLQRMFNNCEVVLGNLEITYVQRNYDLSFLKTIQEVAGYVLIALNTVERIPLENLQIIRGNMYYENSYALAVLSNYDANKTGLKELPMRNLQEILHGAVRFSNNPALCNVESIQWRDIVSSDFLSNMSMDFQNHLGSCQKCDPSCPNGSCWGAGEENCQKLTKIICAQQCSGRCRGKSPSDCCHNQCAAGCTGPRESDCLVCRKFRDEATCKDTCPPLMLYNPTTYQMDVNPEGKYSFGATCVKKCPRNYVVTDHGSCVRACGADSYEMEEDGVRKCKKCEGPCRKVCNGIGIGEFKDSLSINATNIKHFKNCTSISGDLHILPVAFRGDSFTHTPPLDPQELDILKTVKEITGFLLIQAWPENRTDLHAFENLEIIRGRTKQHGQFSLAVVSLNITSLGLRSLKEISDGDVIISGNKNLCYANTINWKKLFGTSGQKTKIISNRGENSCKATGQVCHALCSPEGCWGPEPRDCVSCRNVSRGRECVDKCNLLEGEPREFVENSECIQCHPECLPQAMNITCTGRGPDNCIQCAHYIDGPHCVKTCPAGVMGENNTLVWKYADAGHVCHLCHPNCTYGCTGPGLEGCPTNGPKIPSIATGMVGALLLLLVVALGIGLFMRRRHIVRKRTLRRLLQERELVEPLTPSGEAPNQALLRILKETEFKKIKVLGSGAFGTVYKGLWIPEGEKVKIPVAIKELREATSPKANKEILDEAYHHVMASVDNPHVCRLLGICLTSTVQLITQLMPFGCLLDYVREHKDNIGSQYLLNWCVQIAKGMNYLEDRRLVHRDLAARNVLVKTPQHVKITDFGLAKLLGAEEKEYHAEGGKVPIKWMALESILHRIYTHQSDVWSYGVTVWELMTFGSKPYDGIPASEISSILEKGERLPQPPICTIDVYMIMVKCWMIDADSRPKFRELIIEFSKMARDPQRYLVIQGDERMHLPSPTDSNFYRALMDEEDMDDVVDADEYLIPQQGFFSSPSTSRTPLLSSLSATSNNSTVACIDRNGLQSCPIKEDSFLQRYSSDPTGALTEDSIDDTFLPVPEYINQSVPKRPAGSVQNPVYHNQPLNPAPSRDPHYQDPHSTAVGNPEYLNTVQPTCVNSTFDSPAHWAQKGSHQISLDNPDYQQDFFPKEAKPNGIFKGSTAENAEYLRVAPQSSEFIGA
T7 sequence (P00533 with tags, fused parts or gaps DUP773-773): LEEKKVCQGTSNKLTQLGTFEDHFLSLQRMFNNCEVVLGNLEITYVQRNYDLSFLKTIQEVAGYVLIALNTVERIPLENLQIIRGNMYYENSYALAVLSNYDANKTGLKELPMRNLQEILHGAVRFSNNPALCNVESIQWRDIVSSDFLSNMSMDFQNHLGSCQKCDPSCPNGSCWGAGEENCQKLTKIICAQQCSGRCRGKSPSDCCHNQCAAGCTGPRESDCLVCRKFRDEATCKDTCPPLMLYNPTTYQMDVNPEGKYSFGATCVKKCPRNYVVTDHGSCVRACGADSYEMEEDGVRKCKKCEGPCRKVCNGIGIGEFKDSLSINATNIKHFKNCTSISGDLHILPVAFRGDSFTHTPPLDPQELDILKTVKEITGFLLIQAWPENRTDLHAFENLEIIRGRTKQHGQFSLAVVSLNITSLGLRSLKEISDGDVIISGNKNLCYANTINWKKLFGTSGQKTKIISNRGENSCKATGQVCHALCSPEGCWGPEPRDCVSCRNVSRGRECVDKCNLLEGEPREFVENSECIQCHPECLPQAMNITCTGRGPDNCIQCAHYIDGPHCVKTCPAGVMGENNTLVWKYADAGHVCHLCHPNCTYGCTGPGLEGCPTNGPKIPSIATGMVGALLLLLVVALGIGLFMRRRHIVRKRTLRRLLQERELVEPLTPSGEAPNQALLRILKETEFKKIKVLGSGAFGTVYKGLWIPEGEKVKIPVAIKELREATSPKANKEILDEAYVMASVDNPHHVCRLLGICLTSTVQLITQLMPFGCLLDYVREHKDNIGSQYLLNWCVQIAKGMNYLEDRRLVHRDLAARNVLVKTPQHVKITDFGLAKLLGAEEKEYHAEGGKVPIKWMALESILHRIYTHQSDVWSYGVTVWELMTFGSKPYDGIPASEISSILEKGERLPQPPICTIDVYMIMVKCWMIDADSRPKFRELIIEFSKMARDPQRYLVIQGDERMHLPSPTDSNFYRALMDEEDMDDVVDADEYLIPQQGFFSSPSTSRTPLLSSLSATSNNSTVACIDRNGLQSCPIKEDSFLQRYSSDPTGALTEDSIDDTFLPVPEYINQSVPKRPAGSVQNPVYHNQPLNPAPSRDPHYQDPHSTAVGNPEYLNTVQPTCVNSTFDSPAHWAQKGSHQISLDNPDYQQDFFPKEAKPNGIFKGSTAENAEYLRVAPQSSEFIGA
T12 sequence (P04626 with tags, fused parts or gaps INS773WL/M774V): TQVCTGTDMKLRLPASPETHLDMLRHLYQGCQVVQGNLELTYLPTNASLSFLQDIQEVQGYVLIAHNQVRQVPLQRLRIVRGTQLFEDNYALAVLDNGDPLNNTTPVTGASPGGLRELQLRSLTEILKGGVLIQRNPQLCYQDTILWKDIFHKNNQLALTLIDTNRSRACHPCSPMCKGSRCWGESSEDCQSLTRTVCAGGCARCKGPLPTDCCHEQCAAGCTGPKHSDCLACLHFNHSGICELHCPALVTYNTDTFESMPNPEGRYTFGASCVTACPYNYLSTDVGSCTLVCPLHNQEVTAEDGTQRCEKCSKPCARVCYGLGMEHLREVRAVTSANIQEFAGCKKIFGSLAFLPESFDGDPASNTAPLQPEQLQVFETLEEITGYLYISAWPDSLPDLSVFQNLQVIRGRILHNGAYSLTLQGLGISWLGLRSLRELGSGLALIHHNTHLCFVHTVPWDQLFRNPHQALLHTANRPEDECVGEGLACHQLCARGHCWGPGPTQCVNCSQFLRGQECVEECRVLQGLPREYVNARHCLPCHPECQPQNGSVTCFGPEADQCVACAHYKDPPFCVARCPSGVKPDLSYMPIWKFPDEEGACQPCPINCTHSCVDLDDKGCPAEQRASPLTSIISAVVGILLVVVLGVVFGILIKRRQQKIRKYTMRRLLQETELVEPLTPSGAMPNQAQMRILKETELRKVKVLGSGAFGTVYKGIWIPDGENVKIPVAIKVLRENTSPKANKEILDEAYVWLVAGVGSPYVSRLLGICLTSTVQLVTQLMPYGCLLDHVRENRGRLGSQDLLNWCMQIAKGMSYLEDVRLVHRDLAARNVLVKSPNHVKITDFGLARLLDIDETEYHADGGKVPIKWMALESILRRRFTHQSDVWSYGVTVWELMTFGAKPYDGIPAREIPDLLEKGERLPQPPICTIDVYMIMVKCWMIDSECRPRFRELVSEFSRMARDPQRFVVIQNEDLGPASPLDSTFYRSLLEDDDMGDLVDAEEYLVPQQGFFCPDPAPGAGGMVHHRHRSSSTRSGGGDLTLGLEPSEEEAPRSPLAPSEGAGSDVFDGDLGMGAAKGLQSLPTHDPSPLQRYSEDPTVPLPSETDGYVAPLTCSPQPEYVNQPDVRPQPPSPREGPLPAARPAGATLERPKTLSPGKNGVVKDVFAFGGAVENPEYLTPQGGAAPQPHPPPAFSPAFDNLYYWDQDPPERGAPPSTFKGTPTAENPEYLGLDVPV
T2 sequence (P04626 23-1255): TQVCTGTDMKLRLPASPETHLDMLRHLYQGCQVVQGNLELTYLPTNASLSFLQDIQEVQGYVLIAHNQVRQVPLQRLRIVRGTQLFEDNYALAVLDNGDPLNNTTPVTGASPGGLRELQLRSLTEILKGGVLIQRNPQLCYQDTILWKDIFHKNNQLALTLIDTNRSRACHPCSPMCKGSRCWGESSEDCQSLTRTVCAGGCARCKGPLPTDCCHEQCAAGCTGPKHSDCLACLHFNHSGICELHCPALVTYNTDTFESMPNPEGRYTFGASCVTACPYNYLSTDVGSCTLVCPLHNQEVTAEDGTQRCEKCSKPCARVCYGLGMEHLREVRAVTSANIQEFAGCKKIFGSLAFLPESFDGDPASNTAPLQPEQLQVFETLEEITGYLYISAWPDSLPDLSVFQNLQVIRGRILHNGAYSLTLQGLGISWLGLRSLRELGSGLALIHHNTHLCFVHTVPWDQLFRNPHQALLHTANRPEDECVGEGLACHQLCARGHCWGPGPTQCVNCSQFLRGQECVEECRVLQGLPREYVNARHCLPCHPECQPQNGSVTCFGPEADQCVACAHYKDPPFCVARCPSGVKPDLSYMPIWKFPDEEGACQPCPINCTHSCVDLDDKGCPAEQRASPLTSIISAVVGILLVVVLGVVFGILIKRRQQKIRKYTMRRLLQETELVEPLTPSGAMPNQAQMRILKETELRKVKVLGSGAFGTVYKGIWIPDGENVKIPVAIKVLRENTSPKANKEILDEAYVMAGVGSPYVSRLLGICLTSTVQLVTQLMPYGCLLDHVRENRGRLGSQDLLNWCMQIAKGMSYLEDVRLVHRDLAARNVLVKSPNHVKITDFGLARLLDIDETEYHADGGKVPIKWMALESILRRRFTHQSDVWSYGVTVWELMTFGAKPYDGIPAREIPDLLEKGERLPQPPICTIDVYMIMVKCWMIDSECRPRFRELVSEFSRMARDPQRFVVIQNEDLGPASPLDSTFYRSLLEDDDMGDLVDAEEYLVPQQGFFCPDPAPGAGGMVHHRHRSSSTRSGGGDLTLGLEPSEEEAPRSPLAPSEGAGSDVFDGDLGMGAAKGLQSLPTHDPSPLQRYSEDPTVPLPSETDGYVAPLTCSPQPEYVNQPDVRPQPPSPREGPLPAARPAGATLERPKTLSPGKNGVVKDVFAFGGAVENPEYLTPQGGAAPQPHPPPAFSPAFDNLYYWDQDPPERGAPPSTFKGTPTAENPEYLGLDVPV

For the molecule `C=CC(=O)N1CCC(Cn2c(=O)c(Oc3ccc(F)cc3F)cc3cnc(Nc4cnn(C)c4)nc32)C1` (stereo not drawn) [Compound 26], the 50% effective concentration (EC50) in test [1] was 0.6 to 1 µM; in test [2], below 0.1 µM; in test [3] it was below 0.2 µM; in [4], below 0.2 µM; in test [5], below 0.2 µM; in test [6] it was above 0.5 µM. The EC50 is above 1 µM in test [7]; 0.25 to 0.5 µM in test [8]; below 0.2 µM in test [9]; below 0.1 µM in test [10]; below 0.2 µM in [11]; 0.1 to 0.25 µM in test [12].

As for `C=CC(=O)Nc1cccc(-n2c(=O)c(Oc3ccc(F)cc3F)cc3cnc(Nc4cn(C)nc4OC)nc32)c1` [Compound 4], the EC50 is below 0.2 µM in test [1]; below 0.1 µM in test [2]; below 0.2 µM in [3]; below 0.2 µM in [4]; below 0.2 µM in test [5]; below 0.1 µM in [6]. In addition, the half-maximal effective concentration (EC50) is below 0.2 µM in test [7]; below 0.1 µM in test [8]; below 0.2 µM in test [9]; below 0.1 µM in test [10]; below 0.2 µM in [11]; below 0.1 µM in [12].

Consider `C=CC(=O)Nc1cccc(-n2c(=O)c(Oc3ccc(F)cc3F)cc3cnc(Nc4ccc(N5CCC(N6CCN(C)CC6)CC5)cc4)nc32)c1` [Compound 7], for which the EC50 in [1] was below 0.2 µM; in test [2] it was below 0.1 µM; in test [3], below 0.2 µM; in test [4] it was below 0.2 µM; in test [5] it was below 0.2 µM; in [6] it was below 0.1 µM. Moreover, the EC50 is 0.2 to 0.6 µM in [7]; 0.1 to 0.25 µM in test [8]; below 0.2 µM in [9]; below 0.1 µM in [10]; below 0.2 µM in test [11]; 0.1 to 0.25 µM in [12].

Regarding `C=CC(=O)Nc1cccc(-n2c(=O)c(Oc3ccc(F)cc3F)cc3cnc(Nc4ccc(N5CCN(C)CC5)cc4OC)nc32)c1` [Compound 6], the EC50 in test [1] is below 0.2 µM; in [2] it was below 0.1 µM; in test [3] it was below 0.2 µM; in test [4], below 0.2 µM; in test [5], below 0.2 µM; in [6] it was below 0.1 µM. Further, the half-maximal effective concentration (EC50) was below 0.2 µM in [7]; 0.1 to 0.25 µM in test [8]; below 0.2 µM in [9]; below 0.1 µM in test [10]; below 0.2 µM in test [11]; below 0.1 µM in [12].

Turning to `C=CC(=O)Nc1cccc(-n2c(=O)c(Oc3ccc(F)cc3F)cc3cnc(Nc4cnn(C(F)F)c4)nc32)c1` [Compound 5], the EC50 in [1] is below 0.2 µM; in test [2], below 0.1 µM; in test [3], below 0.2 µM; in test [4], below 0.2 µM; in test [5], below 0.2 µM; in [6], below 0.1 µM. The EC50 in [7] was below 0.2 µM; in test [8], 0.1 to 0.25 µM; in test [9] it was below 0.2 µM; in test [10], below 0.1 µM; in test [11], below 0.2 µM; in test [12], 0.1 to 0.25 µM.

For `C=CC(=O)N1CCC[C@@H](n2c(=O)c(Oc3ccc(F)cc3F)cc3cnc(Nc4cnn(C)c4)nc32)C1` [Compound 15, (R)-8-(1-acryloylpiperidin-3-yl)-6-(2,4-difluorophenoxy)-2-((1-methyl-1H-pyrazol-4-yl)amino)pyrido[2,3-d]pyrimidin-7(8H)-one], the EC50 in test [1] was 0.2 to 0.6 µM; in test [2] it was below 0.1 µM; in test [3] it was below 0.2 µM; in [4] it was below 0.2 µM; in test [5] it was below 0.2 µM; in [6], below 0.1 µM. The 50% effective concentration (EC50) in test [7] is above 1 µM; in [8], below 0.1 µM; in test [9], below 0.2 µM; in test [10], below 0.1 µM; in test [11], below 0.2 µM; in test [12], 0.1 to 0.25 µM.
